Assay [1] addresses T1, recombinant human Lp-PLA2 (Homo sapiens, UniProt Q13093).
T1 sequence (Q13093 22-441): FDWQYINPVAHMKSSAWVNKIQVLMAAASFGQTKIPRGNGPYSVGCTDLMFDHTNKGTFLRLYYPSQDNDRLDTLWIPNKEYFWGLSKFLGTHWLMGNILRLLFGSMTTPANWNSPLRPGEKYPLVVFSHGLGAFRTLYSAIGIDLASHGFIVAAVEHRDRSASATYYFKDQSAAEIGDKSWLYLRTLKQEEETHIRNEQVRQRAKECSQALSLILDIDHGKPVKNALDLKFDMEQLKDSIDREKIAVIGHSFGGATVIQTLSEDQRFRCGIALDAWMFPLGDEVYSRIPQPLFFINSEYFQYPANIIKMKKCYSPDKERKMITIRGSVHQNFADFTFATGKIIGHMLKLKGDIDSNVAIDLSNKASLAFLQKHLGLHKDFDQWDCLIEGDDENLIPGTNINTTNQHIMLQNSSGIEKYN
Put plainly: Recombinant human Lp-PLA2 assay (rhLp-PLA2, PED6 assay). The format is biochemical. The following applies: upper limit for pIC50 in this assay is 9.3. From the text:
(1) Recombinant Human Lp-PLA2 Assay (rhLp-PLA2) (Also Referred to as “PED6” Assay)
N-((6-(2,4-dinitrophenyl)amino)-hexanoyl)-2-(4,4-difluoro-5,7-dimethyl-4-bora-3a,4a-diaza-s-indacene-3-pentanoyl)-1-hexadecanoyl-sn-glycero-3-phosphoethanolamine, triethylammonium salt (PED6) is a commercially available fluorescently-labelled phospholipid, which is commercially available from Molecular Probes. There is a quenching para-nitro phenyl (PNP) group in the sn3 position and a Bodipy fluorescein (FL) group in the sn2 position. Upon cleavage with Lp-PLA2, the Bodipy F1 group is liberated and then may result in an increase in fluorescence. Inhibitors of Lp-PLA2 therefore prevent this cleavage and no fluorescent increase is observed.
The PED6 assay was run as an […] 10 μL assay. Compounds source plate was prepared by making 1:3 (by volume) serial dilution of the compounds into pure DMSO on 384-well microplate. Then, 0.01 μL of compounds on compound source plate were transferred into 384 well Greiner 784076 (black) plates by ECHO liquid dispenser. 5 μL of recombinant human Lp-PLA2 enzyme (2 nM rhLp-PLA2 in assay buffer of 50 mM HEPES, pH7.4, 150 mM NaCl, 1 mM CHAPS) was added to each well of the plate with compounds. Plates were centrifuged for 10 sec at 500 rpm. After 30 minutes preincubation, […] substrate (4 μM PED6 [from 5 mM DMSO stock] in assay buffer of 50 mM HEPES, pH7.4, 150 mM NaCl, 1 mM CHAPS) was added to 384 well Greiner 784076 (black) plates. Plates were centrifuged for 10 sec at 500 rpm. Plate was covered to protect from light and incubated for 20 min at room temperature. Plates were read for fluorescence intensity at ex: 480/em: 540 using ViewLux microplate imager. PIC50 data, curve and QC analysis was conducted by using XL fit module in Excel.

In another assay the target is T2, Lp-PLA2 from plasma (Homo sapiens, UniProt Q13093).
T2 construct: from tissue; host or cells: pooled human plasma
T2 sequence (Q13093 22-441): T1 sequence (Q13093 22-441)
Put plainly: Lp-PLA2 human plasma assay (Thio-PAF assay). The following applies: pooled human plasma; read-out: pIC50 values in the thio-PAF assay (converted). The assay is classed as biochemical. An excerpt:
(3) Lipoprotein-Associated Phospholipase A2 (Lp-PLA2) Human Plasma Assay (Also Referred to as “Thio-PAF Assay”)
The human plasma assay utilizes a thioester analog of PAF (phosphatidylcholine), where hydrolysis yields to the formation of a phospholipid containing a free thiol group. The amount of thiol is quantitated continuously by reacting with CPM (7-diethylamino-3-(4′-maleimidylphenyl)-4-methylcoumarin), a maleimide which increases in fluoresence after Michael addition of thiols. This assay may detect the activity of Lp-PLA2 from plasma, as determined by specific inhibition by Lp-PLA2 inhibitors.
The thio-PAF assay was run as a quenched 15 μL assay. Compounds source plate was prepared by making 1:3 (by volume) serial dilution of the compounds into pure DMSO on 384-well microplate. 0.01 μL of compounds on compound source plate were transferred to 384 well Greiner 784076 (black) low-volume plates by ECHO liquid dispenser. 8 μL pooled human plasma, which was previously aliquoted and frozen, was added. Plates were centrifuged for 10 sec at 500 rpm. After 30 minutes preincubation, 2 μL of substrate (2.5 mM thio-PAF, 3.2 mM NEM (N-ethylmaleimide) [made fresh daily in DMSO], and 32 μM CPM [from a DMSO stock] in assay buffer of 50 mM HEPES, pH7.4, 150 mM NaCl, 1 mM CHAPS was added to 384 well Greiner 784076 (black) low-volume plates by BRAVO liquid handling station. Plates were centrifuged for 10 sec at 500 rpm. Plate was covered to protect from light and incubated for 2 min at room temperature. Reaction was quenched with 5 μL of 5% aqueous trifluoroacetic acid (TFA). Plates were covered to protect from light and incubated for 40 min at room temperature. Plates were read at ex: 380/em: 485 using-Envision microplate reader. PIC50 data, curve and QC analysis was conducted by using XLFit module in Excel.

SMILES strings stand for the structures. Where a name gives a salt, the structure may show the parent alone. Bounds are passed on as bounds.

These results are taken from US8859573B2, “Pyrimidinone and pyridinone compounds for use in the treatment of diseases or conditions mediated by Lp-PLA2” (Glaxo Group Limited, priority 2010, dated 2014).

In the case of `O=c1nc(OCCc2ccc(Oc3ccc(Cl)c(C(F)(F)F)c3)cc2)ccn1Cc1cncnc1` [Example 11, 4-{[2-(4-{[4-Chloro-3-(trifluoromethyl)phenyl]oxy}phenyl)ethyl]oxy}-1-(5-pyrimidinylmethyl)-2(1H)-pyrimidinone], the IC50 in assay [1] is at most 1 nM; on Lp-PLA2 from plasma, at most 100 nM. On the same counts, the results for `Cc1cn(Cc2cnn(C)c2)c(=O)nc1OCCc1ccc(Oc2ccc(F)c(F)c2)nc1` [Example 67, 4-(2-(6-(3,4-difluorophenoxy)pyridin-3-yl)ethoxy)-5-methyl-1-((1-methyl-1H-pyrazol-4-yl)methyl)pyrimidin-2(1H)-one] are over 10 nM and at most 1000 nM.

On to `Cn1cc(Cn2cc(Cl)c(OCCc3cnc(Oc4ccc(Cl)c(C(F)(F)F)c4)c(F)c3)nc2=O)cn1` [Example 31, 5-Chloro-4-(2-(6-(4-chloro-3-(trifluoromethyl)phenoxy)-5-fluoropyridin-3-yl)ethoxy)-1-((1-methyl-1H-pyrazol-4-yl)methyl)pyrimidin-2(1H)-one], for which the IC50 in assay [1] is at most 1 nM; on Lp-PLA2 from plasma, at most 100 nM. On the same counts, the results for `Cn1cc(Cn2cc(Cl)c(OCc3ccc(Oc4ccc(F)c(F)c4)c(F)c3)nc2=O)cn1` [Example 53, 5-chloro-4-((4-(3,4-difluorophenoxy)-3-fluorobenzyl)oxy)-1-((1-methyl-1H-pyrazol-4-yl)methyl)pyrimidin-2 (1H)-one] are at most 1 nM and at most 100 nM. Take `Cn1cc(Cn2cc(F)c(OCCc3ccc(Cc4ccc(Cl)c(C(F)(F)F)c4)cc3)nc2=O)cn1` [Example 46, 4-(4-(4-chloro-3-(trifluoromethyl)benzyl)phenethoxy)-5-fluoro-1-((1-methyl-1H-pyrazol-4-yl)methyl)pyrimidin-2(1H)-one]: the IC50 in assay [1] was at most 1 nM; on Lp-PLA2 from plasma, at most 100 nM.

Turning to `CCn1ccc(OCc2ccc(Oc3ccc(Cl)c(C(F)(F)F)c3)c(C#N)c2)nc1=O` [Example 5, 2-{[4-Chloro-3-(trifluoromethyl)phenyl]oxy}-5-{[(1-ethyl-2-oxo-1,2-dihydro-4-pyrimidinyl)oxy]methyl}benzonitrile], the IC50 in assay [1] is at most 1 nM; at Lp-PLA2 from plasma, at most 1000 nM. As to `CCn1ccc(OCc2ccc(Oc3ccc(Cl)c(C(F)(F)F)c3)cc2)cc1=O` [Example 23, 4-{[(4-{[4-Chloro-3-(trifluoromethyl)phenyl]oxy}phenyl)methyl]oxy}-1-ethyl-2(1H)-pyridinone], the IC50 was over 10 nM in assay [1] and over 10000 nM on Lp-PLA2 from plasma. With `COc1ncc(Cn2cc(F)c(OCCc3ccc(Cc4ccc(Cl)c(C(F)(F)F)c4)cc3)nc2=O)cn1` [Example 47, 4-(4-(4-chloro-3-(trifluoromethyl)benzyl)phenethoxy)-5-fluoro-1-((2-methoxypyrimidin-5-yl)methyl)pyrimidin-2(1H)-one], the IC50 in assay [1] is at most 1 nM; on Lp-PLA2 from plasma it was at most 100 nM. On the same counts, the results for `Cn1cc(Cn2cc(F)c(OCCc3ccc(Oc4ccc(C(F)(F)F)nc4)c(F)c3)nc2=O)cn1` [Example 41, 5-fluoro-4-(3-fluoro-4-((6-(trifluoromethyl)pyridin-3-yl)oxy)phenethoxy)-1-((1-methyl-1H-pyrazol-4-yl)methyl)pyrimidin-2(1H)-one] are at most 1 nM and at most 100 nM. On the same counts, the results for `Cn1cc(Cn2cc(F)c(OCCc3cnc(Oc4ccc(Cl)c(C(F)(F)F)c4)c(F)c3)nc2=O)cn1` [Example 33, 4-(2-(6-(4-chloro-3-(trifluoromethyl)phenoxy)-5-fluoropyridin-3-yl)ethoxy)-5-fluoro-1-((1-methyl-1H-pyrazol-4-yl)methyl)pyrimidin-2(1H)-one] are at most 1 nM and at most 100 nM. Consider `Cn1cc(Cn2ccc(OCc3ccc(Oc4cccc(C(F)(F)F)c4)cc3)cc2=O)cn1` [Example 25, 1-[(1-Methyl-1H-pyrazol-4-yl)methyl]-4-{[(4-{[3-(trifluoromethyl)phenyl]oxy}-phenyl)methyl]oxy}-2(1H)-pyridinone], for which the IC50 in assay [1] is over 10 nM.

For `Cc1ccc(Oc2ccc(COc3ccn(Cc4cnn(C)c4)c(=O)c3)cc2)cc1F` [Example 28, 4-[({4-[(3-Fluoro-4-methylphenyl)oxy]phenyl}methyl)oxy]-1-[(1-methyl-1H-pyrazol-4-yl)methyl]-2(1H)-pyridinone], the IC50 in assay [1] is over 10 nM. Same read-out and setting: the value for `Cc1cccc(Oc2ccc(CCOc3nc(=O)n(Cc4cnn(C)c4)cc3F)cc2)n1` [Example 61, 5-fluoro-1-((1-methyl-1H-pyrazol-4-yl)methyl)-4-(4-((6-methylpyridin-2-yl)oxy)phenethoxy)pyrimidin-2(1H)-one] was over 10 nM; that for `O=c1cc(OCc2ccc(Oc3ccc(Cl)c(C(F)(F)F)c3)cc2)ccn1Cc1cncnc1` [Example 26, 4-{[(4-{[4-Chloro-3-(trifluoromethyl)phenyl]oxy}phenyl)methyl]oxy}-1-(5-pyrimidinylmethyl)-2(1H)-pyridinone] was over 10 nM; that for `COc1ncc(Cn2cc(F)c(OCCc3ccc(Oc4cccc(C)n4)cc3)nc2=O)cn1` [Example 62, 5-fluoro-1-((2-methoxypyrimidin-5-yl)methyl)-4-(4-((6-methylpyridin-2-yl)oxy)phenethoxy)pyrimidin-2(1H)-one] was over 10 nM. In the case of `COc1ncc(Cn2cc(Cl)c(OCc3ccc(Oc4ccc(F)c(F)c4)c(F)c3)nc2=O)cn1` [Example 54, 5-chloro-4-((4-(3,4-difluorophenoxy)-3-fluorobenzyl)oxy)-1-((2-methoxypyrimidin-5-yl)methyl)pyrimidin-2(1H)-one], the IC50 on Lp-PLA2 from plasma was at most 100 nM. Same read-out and setting: the result for `N#Cc1cc(COc2ccn(Cc3ccncc3)c(=O)n2)ccc1Oc1ccc(Cl)c(C(F)(F)F)c1` [Example 2, 2-{[4-Chloro-3-(trifluoromethyl)phenyl]oxy}-5-({[2-oxo-1-(4-pyridinylmethyl)-1,2-dihydro-4-pyrimidinyl]oxy}methyl)benzonitrile trifluoroacetate] reads at most 100 nM. Take `CCn1cc(F)c(OCCc2ccc(Oc3cccc(C(F)(F)F)n3)cc2)nc1=O` [Example 63, 1-ethyl-5-fluoro-4-(4-((6-(trifluoromethyl)pyridin-2-yl)oxy)phenethoxy)pyrimidin-2(1H)-one, trifluoroacetic acid salt]: the IC50 in assay [1] is over 10 nM. For the molecule `O=c1nc(OCCc2ccc(Oc3ccc(Cl)c(C(F)(F)F)c3)cc2)ccn1CCc1cccnc1` [Example 13, 4-{[2-(4-{[4-Chloro-3-(trifluoromethyl)phenyl]oxy}phenyl)ethyl]oxy}-1-[2-(3-pyridinyl)ethyl]-2 (1H)-pyrimidinone trifluoroacetate], the IC50 at Lp-PLA2 from plasma is at most 1000 nM. The same measure, in the same setting: the result for `Cn1cc(Cn2cc(Cl)c(OCCc3ccc(Oc4ccc(Cl)c(C(F)(F)F)c4)cc3)nc2=O)cn1` [Example 30, 5-chloro-4-{[2-(4-{[4-Chloro-3-(trifluoromethyl)phenyl]oxy}phenyl)ethyl]oxy}-1-[(1-methyl-1H-pyrazol-4-yl)methyl]-2(1H)-pyrimidinone] reads at most 100 nM.
